Experimental data from PubChem BioAssay AID248 (DTP/NCI, 2004).
Where “and” joins values, the source holds several entries; their conditions need not be identical. Equal values may be shown once. Toxic doses and inconclusive results are not listed. Rule as the data show it: active = T/C of 150% or more; inactive = T/C below 125%.

Test system: L1210 leukemia ip in BDF1 mice, survival T/C
Assay: NCI In Vivo Anticancer Drug Screen. Data for tumor model L1210 Leukemia (intraperitoneal) in B6D2F1 (BDF1) mice
Conditions: endpoint: mean survival time, higher = longer survival
Outline: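 Each compound was tested against a transplantable tumor grown in mice. The endpoint was survival, with treated animals benchmarked against vehicle controls as a simple ratio.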

[1] = dose: 100.0 mg/kg/injection, schedule: Q04DX003 (ip), vehicle: Klucel (hydroxypropylcellulose) (HPC)
[2] = dose: 200.0 mg/kg/injection, schedule: Q04DX003 (ip), vehicle: Klucel (hydroxypropylcellulose) (HPC)
[3] = dose: 400.0 mg/kg/injection, schedule: Q04DX003 (ip), vehicle: Klucel (hydroxypropylcellulose) (HPC)
[4] = dose: 100.0 mg/kg/injection, schedule: Q01DX001 (ip), vehicle: saline
[5] = dose: 200.0 mg/kg/injection, schedule: Q01DX001 (ip), vehicle: saline
[6] = dose: 400.0 mg/kg/injection, schedule: Q01DX001 (ip), vehicle: saline
[7] = dose: 100.0 mg/kg/injection, schedule: Q01DX009 (ip), vehicle: Klucel (hydroxypropylcellulose) (HPC)
[8] = dose: 200.0 mg/kg/injection, schedule: Q01DX009 (ip), vehicle: Klucel (hydroxypropylcellulose) (HPC)
[9] = dose: 400.0 mg/kg/injection, schedule: Q01DX009 (ip), vehicle: Klucel (hydroxypropylcellulose) (HPC)
[10] = dose: 100.0 mg/kg/injection, schedule: Q04DX003 (ip), vehicle: saline
[11] = dose: 25.0 mg/kg/injection, schedule: Q01DX009 (ip), vehicle: Klucel (hydroxypropylcellulose) (HPC)
[12] = dose: 50.0 mg/kg/injection, schedule: Q01DX009 (ip), vehicle: Klucel (hydroxypropylcellulose) (HPC)

Measured: T/C

C[C@]12CC[C@@H]3c4ccc(OC5CCCCO5)cc4CC[C@H]3[C@@H]1CC[C@@H]2O (some centres not stated)
inactive: dose: 146.0 mg/kg/injection, schedule: Q01DX Z (ip), vehicle: steriod suspending solution 96 % of control | dose: 220.0 mg/kg/injection, schedule: Q01DX Z (ip), vehicle: steriod suspending solution 94 % of control | dose: 330.0 mg/kg/injection, schedule: Q01DX Z (ip), vehicle: steriod suspending solution 98 % of control | dose: 500.0 mg/kg/injection, schedule: Q01DX001 (sc), vehicle: steriod suspending solution 102 % of control | dose: 500.0 mg/kg/injection, schedule: Q01DX Z (ip), vehicle: steriod suspending solution 90 % of control | dose: 600.0 mg/kg/injection, schedule: Q01DX001 (sc), vehicle: steriod suspending solution 100 % of control | dose: 700.0 mg/kg/injection, schedule: Q01DX001 (sc), vehicle: steriod suspending solution 96 % of control | dose: 800.0 mg/kg/injection, schedule: Q01DX001 (sc), vehicle: steriod suspending solution 102 % of control

CCS(=O)(=O)C(CCC(C)C)CCC(C)C
inactive: dose: 100.0 mg/kg/injection, schedule: Q01DX001 (ip), vehicle: carboxymethylcellulose (CMC) 102 % of control | dose: 200.0 mg/kg/injection, schedule: Q01DX001 (ip), vehicle: carboxymethylcellulose (CMC) 109 % of control | dose: 400.0 mg/kg/injection, schedule: Q01DX001 (ip), vehicle: carboxymethylcellulose (CMC) 104 % of control

CCP(=S)(CC)CCCCCP(=S)(CC)CC
inactive: dose: 100.0 mg/kg/injection, schedule: Q04DX003 (ip), vehicle: saline with Tween-80 92 % of control | dose: 200.0 mg/kg/injection, schedule: Q04DX003 (ip), vehicle: saline with Tween-80 95 % of control | dose: 400.0 mg/kg/injection, schedule: Q04DX003 (ip), vehicle: saline with Tween-80 87 % of control

CCOc1ccc(Nc2ncnc3nc[nH]c23)cc1CN(CCCl)C(C)CCl (configuration not stated)
inactive: dose: 1.0 mg/kg/injection, schedule: Q01DX Z (ip), vehicle: saline 112 % of control | dose: 2.0 mg/kg/injection, schedule: Q01DX Z (ip), vehicle: saline 111 % of control | dose: 4.0 mg/kg/injection, schedule: Q01DX Z (ip), vehicle: saline 97 % of control

CCC(CC)NC(C)CO (configuration not stated)
inactive: dose: 75.0 mg/kg/injection, schedule: Q01DX001 (ip), vehicle: acid diluted with saline 105 % of control | dose: 150.0 mg/kg/injection, schedule: Q01DX001 (ip), vehicle: acid diluted with saline 103 % of control | dose: 300.0 mg/kg/injection, schedule: Q01DX001 (ip), vehicle: acid diluted with saline 103 % of control

N#Cc1cc([N+](=O)[O-])c(Cl)c([N+](=O)[O-])c1Cl
inactive: dose: 3.13 mg/kg/injection, schedule: Q01DX009 (ip), vehicle: saline with Tween-80 95 % of control | dose: 6.25 mg/kg/injection, schedule: Q01DX009 (ip), vehicle: saline with Tween-80 108 % of control | dose: 6.25 mg/kg/injection, schedule: Q04DX003 (ip), vehicle: saline with Tween-80 98 % of control | dose: 12.5 mg/kg/injection, schedule: Q01DX009 (ip), vehicle: saline with Tween-80 101 % of control | dose: 12.5 mg/kg/injection, schedule: Q04DX003 (ip), vehicle: saline with Tween-80 95 % of control

Nc1ccc(Cc2ccc(N)c(Cl)c2)cc1Cl
inactive: [1] 100 % of control | [2] 91 % of control | [3] 100 % of control

Cn1nc(C(=O)O)c(=O)[nH]c1=S
inactive: dose: 100.0 mg/kg/injection, schedule: Q01DX Z (ip), vehicle: methylcellulose (MC) 97 % of control | dose: 200.0 mg/kg/injection, schedule: Q01DX Z (ip), vehicle: methylcellulose (MC) 92 % of control

CCC(C)(C)N
inactive: [4] 91 % of control | [5] 97 % of control | [6] 101 % of control

Cn1c(=N)ccn(C2OC(CO)C(O)C2O)c1=O (configuration not stated) (tested in a mixture with another compound)
inactive: [4] 106 % of control | [5] 106 % of control | [6] 107 % of control

O=C(Oc1ccccc1)c1ccc(Cl)cc1
inactive: [7] 98 % of control | [1] 102 % of control | [8] 95 % of control | [2] 101 % of control | [9] 98 % of control | [3] 98 % of control

CC/C(C)=N/C(=O)NN
inactive: dose: 100.0 mg/kg/injection, schedule: Q01DX001 (ip), vehicle: saline with Tween-80 103 % of control

CC(C)CCS(=O)c1ccccc1 (configuration not stated)
inactive: dose: 75.0 mg/kg/injection, schedule: Q01DX001 (ip), vehicle: acetone 91 % of control | dose: 75.0 mg/kg/injection, schedule: Q04DX003 (ip), vehicle: acetone 100 % of control | dose: 150.0 mg/kg/injection, schedule: Q01DX001 (ip), vehicle: acetone 100 % of control | dose: 150.0 mg/kg/injection, schedule: Q04DX003 (ip), vehicle: acetone 97 % of control | dose: 300.0 mg/kg/injection, schedule: Q01DX001 (ip), vehicle: acetone 98 % of control | dose: 300.0 mg/kg/injection, schedule: Q04DX003 (ip), vehicle: acetone 89 % of control

CCOC(=O)C1(C(=O)OCC)CCC1
inactive: [4] 103 % of control | [5] 94 % of control

O=[N+]([O-])c1ccc(SC2=NCCCN2)c([N+](=O)[O-])c1
inactive: dose: 12.5 mg/kg/injection, schedule: Q04DX002 (ip), vehicle: Klucel (hydroxypropylcellulose) (HPC) 106 % of control | dose: 25.0 mg/kg/injection, schedule: Q04DX002 (ip), vehicle: Klucel (hydroxypropylcellulose) (HPC) 95 % of control

CC(=O)OCC(COC(C)=O)=C1N=C(c2ccccc2)OC1=O
inactive: [7] 103 % of control | [1] 95 % of control | [8] 106 % of control | [2] 95 % of control | [9] 107 % of control | [3] 97 % of control

COc1cc(C2=C3C(=O)OC[C@@H]3Cc3cc4c(cc32)OCO4)cc(OC)c1OC
inactive: [4] 94 % of control | [7] 91 % of control | [1] 95 % of control | [10] 105 % of control | [5] 104 % of control | [8] 94 % of control | [2] 97 % of control | dose: 200.0 mg/kg/injection, schedule: Q04DX003 (ip), vehicle: saline 96 % of control | [6] 93 % of control | [9] 96 % of control | [3] 92 % of control | dose: 400.0 mg/kg/injection, schedule: Q04DX003 (ip), vehicle: saline 101 % of control

S=C(NCc1ccc(Cl)c(Cl)c1)Nc1ccccc1
inactive: [11] 102 % of control | [12] 90 % of control | [7] 87 % of control and 90 % of control

CCc1cccc(CC)c1N1C(=O)C2C(C1=O)C1(Cl)C(Cl)=C(Cl)C2(Cl)C1(Cl)Cl (configuration not stated)
inactive: [11] 98 % of control | dose: 25.0 mg/kg/injection, schedule: Q04DX003 (ip), vehicle: Klucel (hydroxypropylcellulose) (HPC) 91 % of control | [12] 102 % of control | dose: 50.0 mg/kg/injection, schedule: Q04DX003 (ip), vehicle: Klucel (hydroxypropylcellulose) (HPC) 93 % of control | [7] 105 % of control | [1] 106 % of control and 88 % of control

[Cu+2].[NH-]C(CC(=O)O)C(=O)O.[NH-]C(CC(=O)O)C(=O)O (configuration not stated)
inactive: dose: 5.0 mg/kg/injection, schedule: Q01DX001 (ip), vehicle: saline 96 % of control | dose: 10.0 mg/kg/injection, schedule: Q01DX001 (ip), vehicle: saline 96 % of control | dose: 20.0 mg/kg/injection, schedule: Q01DX001 (ip), vehicle: saline 91 % of control | dose: 40.0 mg/kg/injection, schedule: Q01DX001 (ip), vehicle: saline 96 % of control

O=C(O)c1ccccc1C(=O)Nc1cccc2ccccc12
inactive: dose: 100.0 mg/kg/injection, schedule: Q04DX002 (ip), vehicle: Klucel (hydroxypropylcellulose) (HPC) 88 % of control | dose: 200.0 mg/kg/injection, schedule: Q04DX002 (ip), vehicle: Klucel (hydroxypropylcellulose) (HPC) 104 % of control

O=C(O)CC1(O)CCCC1
inactive: dose: 25.0 mg/kg/injection, schedule: Q04DX003 (ip), vehicle: saline 100 % of control | dose: 50.0 mg/kg/injection, schedule: Q04DX003 (ip), vehicle: saline 96 % of control | [10] 107 % of control

CC1CN1P(=O)(OCCC#N)N1CC1C (configuration not stated)
inactive: dose: 50.0 mg/kg/injection, schedule: Q01DX009 (ip), vehicle: saline 99 % of control and 111 % of control | dose: 100.0 mg/kg/injection, schedule: Q01DX009 (ip), vehicle: saline 110 % of control and 113 % of control | dose: 132.0 mg/kg/injection, schedule: Q04DX003 (ip), vehicle: acetone 109 % of control | dose: 200.0 mg/kg/injection, schedule: Q01DX009 (ip), vehicle: saline 108 % of control | dose: 400.0 mg/kg/injection, schedule: Q01DX009 (ip), vehicle: saline 96 % of control

CN(C)C(=O)ON=C1c2ccccc2-c2ccccc21
inactive: [4] 103 % of control | [5] 97 % of control | [6] 103 % of control
